“And” between values parts separate entries of the source, which are not always exact repeats. Equal values may be shown once. Ends that are not written are not given here.
How the values were obtained:
[1] = cynomolgus monkey, in vivo
Source text: Animals. […] Solvent was used as vehicle for the control group.
The animals used in this analysis were cynomolgus monkeys (Macaca fascicularis), supplied by Centre de Recherches Primatologiques, Port Louis, Mauritius. Two animals were used per group and sex. At the beginning of the treatment period, the animals were at least 24 months old, with a body weight of approximately 3 kg. Animals were kept under standard conditions for animal welfare. Animals were examined daily for mortality, food consumption and clinical observations. Body weight was recorded once per week.

Blood pressure = type: in vivo, cynomolgus monkeys (Macaca fascicularis); conditions: for Blood Pressure Difference: Week 2 vs Week-1; for Blood Pressure Week-1: before dosing
Haematology = type: in vivo, cynomolgus monkeys (Macaca fascicularis)
Source text: (§1) Blood sampling. […] Blood samples were taken from a peripheral vein.

[2] = Hormone determinations in serum; type: in vivo, cynomolgus monkeys (Macaca fascicularis); conditions: males
Source text: as §1

[3] = urine, females, day −8 (pre-dose)

Food Consumption Avg., Both animals [1]: 89.6
B (Haematology; females, d 7): 0.06 G/L and 0.04 G/L
L (Haematology; females, d 7): 6.29 G/L and 5.87 G/L
MCH (Haematology; females, d 7): 18.9 pg and 19 pg
MCV (Haematology; females, d 7): 67 fL and 68 fL
PCV (Haematology; females, d 7): 0.41 l/l and 0.43 l/l
PLAT (Haematology; females, d 7): 525 G/L and 382 G/L
RBC (Haematology; females, d 7): 6.2 T/l and 6.4 T/l
WBC (Haematology; females, d 7): 18.4 G/l and 12.3 G/l
B (Haematology; females, d 13): 0.03 G/L and 0.04 G/L
E (Haematology; females, d 13): 0.21 G/L and 0.29 G/L
HB (Haematology; females, d 13): 11.3 g/dL
L (Haematology; females, d 13): 5.81 G/L and 5.21 G/L
MCH (Haematology; females, d 13): 19.3 pg and 19.2 pg
MCV (Haematology; females, d 13): 67 fL and 66 fL
PCV (Haematology; females, d 13): 0.4 l/l and 0.39 l/l
PLAT (Haematology; females, d 13): 496 G/L and 309 G/L
RBC (Haematology; females, d 13): 5.9 T/l
WBC (Haematology; females, d 13): 13.2 G/l and 10.1 G/l
L (Haematology; females, d −8 (before dosing)): 3.92 G/L and 4.4 G/L
MCH (Haematology; females, d −8 (before dosing)): 19.3 pg
MCV (Haematology; females, d −8 (before dosing)): 63 fL and 64 fL
PCV (Haematology; females, d −8 (before dosing)): 0.44 l/l and 0.43 l/l
RBC (Haematology; females, d −8 (before dosing)): 6.9 T/l and 6.7 T/l
WBC (Haematology; females, d −8 (before dosing)): 10.1 G/l and 14.3 G/l
monocyte count (Haematology; females, d −8 (before dosing)): 0.8 G/l and 0.54 G/l
B (Haematology; males, d 7): 0.02 G/l and 0.03 G/l
HB (Haematology; males, d 7): 11.3 g/dL and 11.9 g/dL
L (Haematology; males, d 7): 5.91 G/l and 5.30 G/l
MCH (Haematology; males, d 7): 17.7 pg and 20.2 pg
MCHC (Haematology; males, d 7): 29.3 g/dL and 30.2 g/dL
MCV (Haematology; males, d 7): 60 fL and 67 fL
PCV (Haematology; males, d 7): 0.38 l/l and 0.40 l/l
PLAT (Haematology; males, d 7): 456 G/l and 589 G/l
RBC (Haematology; males, d 7): 6.4 T/l and 5.9 T/l
WBC (Haematology; males, d 7): 8.4 G/l and 15.0 G/l
B (Haematology; males, d 13): 0.04 G/l and 0.03 G/l
HB (Haematology; males, d 13): 11.7 g/dL and 11.8 g/dL
L (Haematology; males, d 13): 5.37 G/l and 4.86 G/l
M (Haematology; males, d 13): 0.27 G/l and 0.46 G/l
MCH (Haematology; males, d 13): 17.3 pg and 20.3 pg
MCHC (Haematology; males, d 13): 27.5 g/dL and 29.2 g/dL
MCV (Haematology; males, d 13): 63 fL and 70 fL
PCV (Haematology; males, d 13): 0.43 l/l and 0.41 l/l
PLAT (Haematology; males, d 13): 330 G/l and 452 G/l
RBC (Haematology; males, d 13): 6.8 T/l and 5.8 T/l
WBC (Haematology; males, d 13): 8.8 G/l and 11.9 G/l
HB (Haematology; males, d −6 (before dosing)): 13.6 g/dL and 13.2 g/dL
L (Haematology; males, d −6 (before dosing)): 5.07 G/l and 3.99 G/l
MCH (Haematology; males, d −6 (before dosing)): 18.0 pg and 20.4 pg
MCHC (Haematology; males, d −6 (before dosing)): 31.5 g/dL and 33.1 g/dL
MCV (Haematology; males, d −6 (before dosing)): 57 fL and 62 fL
PCV (Haematology; males, d −6 (before dosing)): 0.43 l/l and 0.40 l/l
PLAT (Haematology; males, d −6 (before dosing)): 325 G/l and 459 G/l
RBC (Haematology; males, d −6 (before dosing)): 7.6 T/l and 6.5 T/l
WBC (Haematology; males, d −6 (before dosing)): 10.4 G/l and 9.1 G/l
ACTH ([2]; day 7): 101 pg/mL and 88 pg/mL
ALDOST ([2]; day 7): 380 pg/mL and 471 pg/mL
C-PEPTI ([2]; day 7): 2.90 ng/mL and 4.40 ng/mL
CORTISOL ([2]; day 7): 1156 nmol/L and 1432 nmol/L
CT ([2]; day 7): 4.0 pg/mL and 7.8 pg/mL
G.H. ([2]; day 7): 15.8 ng/mL and 11.6 ng/mL
GASTRIN ([2]; day 7): 84 pg/mL and 98 pg/mL
GLUCAG ([2]; day 7): 656 pg/mL and 497 pg/mL
INSULIN ([2]; day 7): 22.0 mU/l and 38.0 mU/l
IPH ([2]; day 7): 96 pg/mL and 62 pg/mL
S.MED ([2]; day 7): 749 ng/mL and 828 ng/mL
T3 ([2]; day 7): 3.47 nmol/L and 2.76 nmol/L
T4 ([2]; day 7): 90 nmol/L and 80 nmol/L
VD25-H ([2]; day 7): 62 nmol/L
ACTH ([2]; day 13): 83 pg/mL and 91 pg/mL
ALDOST ([2]; day 13): 592 pg/mL and 651 pg/mL
C-PEPTI ([2]; day 13): 2.10 ng/mL and 2.40 ng/mL
CORTISOL ([2]; day 13): 1299 nmol/L and 1212 nmol/L
CT ([2]; day 13): 4.6 pg/mL and 7.6 pg/mL
G.H. ([2]; day 13): 12.1 ng/mL and 14.0 ng/mL
GASTRIN ([2]; day 13): 78 pg/mL and 94 pg/mL
GLUCAG ([2]; day 13): 786 pg/mL and 739 pg/mL
INSULIN ([2]; day 13): 14.0 mU/l and 10.0 mU/l
IPH ([2]; day 13): 78 pg/mL and 55 pg/mL
S.MED ([2]; day 13): 914 ng/mL and 867 ng/mL
T3 ([2]; day 13): 3.55 nmol/L and 2.43 nmol/L
T4 ([2]; day 13): 68 nmol/L and 56 nmol/L
VD25-H ([2]; day 13): 50 nmol/L
ALDOST ([2]; day −6 (pre-dose)): 265 pg/mL and 141 pg/mL
CORTISOL ([2]; day −6 (pre-dose)): 1662 nmol/L and 1506 nmol/L
CT ([2]; day −6 (pre-dose)): 6.1 pg/mL and 10.4 pg/mL
G.H. ([2]; day −6 (pre-dose)): 13.4 ng/mL and 8.5 ng/mL
GLUCAG ([2]; day −6 (pre-dose)): 858 pg/mL and 694 pg/mL
INSULIN ([2]; day −6 (pre-dose)): 16.0 mU/l and 12.0 mU/l
IPH ([2]; day −6 (pre-dose)): 123 pg/mL and 71 pg/mL
PROLACT ([2]; day −6 (pre-dose)): 7.1 ng/mL and 7.5 ng/mL
T3 ([2]; day −6 (pre-dose)): 2.48 nmol/L and 1.38 nmol/L
T4 ([2]; day −6 (pre-dose)): 84 nmol/L and 59 nmol/L
VD25-H ([2]; day −6 (pre-dose)): 77 nmol/L and 88 nmol/L
ACTH ([2]; day −6 relative to start of dosing (pre-dose)): 96 pg/mL and 115 pg/mL
Ca2+ (urine) (Urinary analysis; males, day 13): 7.55 mmol/L and 13.10 mmol/L
I.PHOS (urine) (Urinary analysis; males, day 13): 0.10 mmol/L and 0.17 mmol/L
K+ (urine) (Urinary analysis; males, day 13): 107 mmol/L and 69 mmol/L
LDH (urine) (Urinary analysis; males, day 13): 14.0 IU/L and 19.0 IU/L
Mg2+ (urine) (Urinary analysis; males, day 13): 8.70 mmol/L and 5.25 mmol/L
NAG (urine) (Urinary analysis; males, day 13): 2.9 IU/l and 2.6 IU/l
CREAT (urine) (Urinary analysis; males, day −5 (before dosing)): 16160 µmol/L and 16120 µmol/L
CREAT (urine) (Urinary analysis; males, day −6 (before dosing)): 16160 µmol/L and 9940 µmol/L
Ca2+ (urine) (Urinary analysis; males, day −6 (before dosing)): 5.10 mmol/L and 3.50 mmol/L
K+ (urine) (Urinary analysis; males, day −6 (before dosing)): 86 mmol/L and 125 mmol/L
LDH (urine) (Urinary analysis; males, day −6 (before dosing)): 7.0 IU/L and 9.0 IU/L
CREAT (Urinary analysis; urine, females, day 13): 5620 µmol/L and 8060 µmol/L
Ca2+ (Urinary analysis; urine, females, day 13): 20.05 mmol/L and 12.35 mmol/L
Cl− (Urinary analysis; urine, females, day 13): 101 mmol/L and 133 mmol/L
LDH (Urinary analysis; urine, females, day 13): 10.0 IU/L and 9.0 IU/L
Mg2+ (Urinary analysis; urine, females, day 13): 6.90 mmol/L and 5.90 mmol/L
VOLUME (Urinary analysis; urine, females, day 13 of dosing): 52 mL and 42 mL
CREAT (Urinary analysis; [3]): 19160 µmol/L and 14060 µmol/L
Ca2+ (Urinary analysis; [3]): 11.50 mmol/L and 6.60 mmol/L
K+ (Urinary analysis; [3]): 302 mmol/L and 164 mmol/L
LDH (Urinary analysis; [3]): 11.0 IU/L and 18.0 IU/L
Mg2+ (Urinary analysis; [3]): 7.35 mmol/L and 4.00 mmol/L
Na+ (Urinary analysis; [3]): 145 mmol/L and 118 mmol/L
Sequence: SVSEIQLLHDKGKHLASQERVEWLRKKLQDVHTA [PTS893, Leu8, Asp10, Lys11, Ala16, Gln18, Thr33, Ala34 human PTH 1-34 [hPTH(1-34)]]
Blood Pressure Week 2 (Blood pressure; Female, first line per animal): 70 mmHg and 87 mmHg
Blood Pressure Difference (Blood pressure; Female, first line per animal): −22 mmHg and 9 mmHg
Blood Pressure Week-1 (Blood pressure; Female, first line per animal): 92 mmHg and 78 mmHg
Blood Pressure Week 2 (Blood pressure; Female, second line per animal): 42 mmHg and 28 mmHg
Blood Pressure Difference (Blood pressure; Female, second line per animal): −1 mmHg and 4 mmHg
Blood Pressure Week-1 (Blood pressure; Female, second line per animal): 43 mmHg and 24 mmHg
Blood Pressure Week 2 (Blood pressure; Male, first line per animal): 87 mmHg and 101 mmHg
Blood Pressure Difference (Blood pressure; Male, first line per animal): 11 mmHg and −5 mmHg
Blood Pressure Week-1 (Blood pressure; Male, first line per animal): 76 mmHg and 106 mmHg
Blood Pressure Week 2 (Blood pressure; Male, second line per animal): 22 mmHg and 33 mmHg
Blood Pressure Difference (Blood pressure; Male, second line per animal): 4 mmHg and −20 mmHg
Blood Pressure Week-1 (Blood pressure; Male, second line per animal): 18 mmHg and 53 mmHg

— patent publication US20070099828A1, “BIOMARKERS FOR THE EFFICACY OF CALCITONIN AND PARATHYROID HORMONE TREATMENT” (priority 2003, published 2007)
